≈ marks a conversion by molar mass, not a printed value. Some results are limits rather than exact numbers.

Holding throughout (assay type): functional
For assay [1], the system named is Candida albicans. Kind of assay: Minimum inhibitory concentration against Candida albicans (CCH 442) in the presence of serum.
In assay [2] the test system is Candida albicans. Kind of assay: Minimum inhibitory concentration against Candida albicans (CCH 442) in the absence of serum.
Assay [3] concerns Candida albicans. Kind of assay: Minimum inhibitory concentration against Candida albicans (579a) in the presence of serum.
Assay [4] relates to Candida albicans. Kind of assay: Minimum inhibitory concentration against Candida albicans (ATCC 62376) in the absence of serum.
Assay [5] deals with Candida albicans. Kind of assay: Minimum inhibitory concentration against Candida albicans (ATCC 38247) in the presence of serum.
Assay [6] relates to Candida albicans. Kind of assay: Minimum inhibitory concentration against Candida albicans (ATCC 38247) in the absence of serum.
In assay [7] the test system is Candida albicans. Kind of assay: Minimum inhibitory concentration against Candida albicans (ATCC 62376) in the presence of serum.
In assay [8] the test system is Candida albicans. Kind of assay: Minimum inhibitory concentration against Candida albicans (ATCC 10231) in the absence of serum.
For assay [9], the system named is Candida albicans. Kind of assay: Minimum inhibitory concentration against Candida albicans (579a) in the absence of serum.
Assay [10] concerns Candida albicans. Kind of assay: Minimum inhibitory concentration against Candida albicans (ATCC 10231) in the presence of serum.

In general, MIC refers to the least concentration at which growth counts as inhibited. As to `CCCCC/C=C/C=C/[C@@H](O)C/C=C/C=C/C(=O)O[C@@H]1[C@@H](O)[C@H](c2c(O)cc(O)cc2CO)O[C@H](CO)[C@H]1O[C@@H]1O[C@H](COC(=O)c2ccc(-c3ccc(OCCC)cc3)cc2)[C@H](O)[C@H](O)[C@H]1O[C@@H]1O[C@H](CO)[C@H](O)[C@H](O)[C@H]1O`, the minimum inhibitory concentration (MIC) in assay [1] is 0.78 µg/mL; in assay [2], 6.25 µg/mL (≈ 5.62 µM); in [3], 0.78 µg/mL; in [4] it was 12.5 µg/mL (≈ 11.2 µM); in assay [5], 0.78 µg/mL; in [6] it was 25 µg/mL (≈ 22.5 µM). The minimal inhibitory concentration (MIC) in assay [7] is 0.78 µg/mL; in [8] it was 12.5 µg/mL (≈ 11.2 µM); in assay [9] it was 25 µg/mL (≈ 22.5 µM); in assay [10] it was 0.78 µg/mL.

Consider `CCCCC/C=C/C=C/[C@@H](O)C/C=C/C=C/C(=O)O[C@@H]1[C@@H](O)[C@H](c2c(O)cc(O)cc2CO)O[C@H](CO)[C@H]1O[C@@H]1O[C@H](COC(=O)c2ccc(-c3ccc(O)cc3)cc2)[C@H](O)[C@H](O)[C@H]1O[C@@H]1O[C@H](CO)[C@H](O)[C@H](O)[C@H]1O`, for which the MIC in assay [1] was 6.25 µg/mL; in assay [2] it was above 100 µg/mL; in [3], 6.25 µg/mL; in assay [4] it was above 100 µg/mL; in assay [5], 6.25 µg/mL; in [6] it was above 100 µg/mL. Besides, the MIC was 12.5 µg/mL in assay [7], above 100 µg/mL in assay [8], above 100 µg/mL in assay [9] and 12.5 µg/mL in [10].

On to `CCCCC/C=C/C=C/[C@@H](O)C/C=C/C=C/C(=O)O[C@@H]1[C@@H](O)[C@H](c2c(O)cc(O)cc2CO)O[C@H](CO)[C@H]1O[C@@H]1O[C@H](COC(=O)/C=C/C=C/CCCCCC)[C@H](O)[C@H](O)[C@H]1O[C@@H]1O[C@H](CO)[C@H](O)[C@H](O)[C@H]1O`, for which the minimum inhibitory concentration (MIC) in assay [1] is 1.56 µg/mL; in assay [2], above 100 µg/mL; in assay [3], 0.78 µg/mL; in assay [4] it was above 100 µg/mL; in assay [5], 1.56 µg/mL; in assay [6], above 100 µg/mL. Besides, the MIC is 3.12 µg/mL in assay [7], above 100 µg/mL in assay [8], above 100 µg/mL in assay [9] and 1.56 µg/mL in assay [10].

For `CCC(O)/C=C/C=C\C=C\C(=O)OC[C@H]1O[C@@H](O[C@H]2[C@H](OC(=O)/C=C/C=C/C[C@H](O)/C(C)=C/C=C/CCC(C)CC)[C@@H](O)[C@@]3(OCc4cc(O)cc(O)c43)O[C@@H]2CO)[C@H](O)[C@@H](O)[C@H]1O` (stereo not given in full), the MIC in assay [1] was 0.78 µg/mL; in assay [2], above 100 µg/mL; in assay [3] it was 0.78 µg/mL; in [4], above 100 µg/mL; in assay [5] it was 0.39 µg/mL; in assay [6] it was above 100 µg/mL. Also, the MIC in assay [7] is 0.39 µg/mL; in assay [8] it was above 100 µg/mL; in [9], above 100 µg/mL; in assay [10] it was 0.2 µg/mL.

`CCCCC/C=C/C=C/[C@@H](O)C/C=C/C=C/C(=O)O[C@@H]1[C@@H](O)[C@H](c2c(O)cc(O)cc2CO)O[C@H](CO)[C@H]1O[C@@H]1O[C@H](COC(=O)c2ccc(-c3ccccc3OC)cc2)[C@H](O)[C@H](O)[C@H]1O[C@@H]1O[C@H](CO)[C@H](O)[C@H](O)[C@H]1O`: the MIC in [1] was found to be 6.25 µg/mL; in assay [2], 50 µg/mL (≈ 46.2 µM); in [3], 1.56 µg/mL; in [4], 50 µg/mL (≈ 46.2 µM); in assay [5] it was 6.25 µg/mL; in [6] it was 100 µg/mL (≈ 92.3 µM). Also, the MIC in [7] is 1.56 µg/mL; in [8] it was 50 µg/mL (≈ 46.2 µM); in [9], 50 µg/mL (≈ 46.2 µM); in assay [10] it was 6.25 µg/mL.

Take `CCCCC/C=C/C=C/[C@@H](O)C/C=C/C=C/C(=O)O[C@@H]1[C@@H](O)[C@H](c2c(O)cc(O)cc2CO)O[C@H](CO)[C@H]1O[C@@H]1O[C@H](COC(=O)c2ccc3c(c2)-c2ccccc2-3)[C@H](O)[C@H](O)[C@H]1O[C@@H]1O[C@H](CO)[C@H](O)[C@H](O)[C@H]1O`: the MIC in assay [1] stood at 0.39 µg/mL; in [2] it was 25 µg/mL (≈ 23.8 µM); in [3], 0.39 µg/mL; in assay [4], 25 µg/mL (≈ 23.8 µM); in assay [5], 0.78 µg/mL; in assay [6], 25 µg/mL (≈ 23.8 µM). For the same molecule, the minimum inhibitory concentration (MIC) in assay [7] worked out at 1.56 µg/mL; in [8] it was 25 µg/mL (≈ 23.8 µM); in assay [9], 25 µg/mL (≈ 23.8 µM); in assay [10], 1.56 µg/mL.

As to `CCCCC/C=C/C=C/[C@@H](O)C/C=C/C=C/C(=O)O[C@@H]1[C@@H](O)[C@H](c2c(O)cc(O)cc2CO)O[C@H](CO)[C@H]1O[C@@H]1O[C@H](COC(=O)c2ccc3ccccc3c2)[C@H](O)[C@H](O)[C@H]1O[C@@H]1O[C@H](CO)[C@H](O)[C@H](O)[C@H]1O`, the minimal inhibitory concentration (MIC) in assay [1] was 1.56 µg/mL; in [2] it was 50 µg/mL (≈ 48.7 µM); in assay [3], 0.78 µg/mL; in assay [4] it was 25 µg/mL (≈ 24.3 µM); in assay [5] it was 0.78 µg/mL; in assay [6], above 100 µg/mL. Further, the minimum inhibitory concentration (MIC) came to 3.12 µg/mL in [7], 50 µg/mL (≈ 48.7 µM) in assay [8], 50 µg/mL (≈ 48.7 µM) in [9] and 3.12 µg/mL in assay [10].

As for `CCCCC/C=C/C=C/[C@@H](O)C/C=C/C=C/C(=O)O[C@@H]1[C@@H](O)[C@H](c2c(O)cc(O)cc2CO)O[C@H](CO)[C@H]1O[C@@H]1O[C@H](COC(=O)c2ccc(-c3ccc(OCCCCCCCC)cc3)cc2)[C@H](O)[C@H](O)[C@H]1O[C@@H]1O[C@H](CO)[C@H](O)[C@H](O)[C@H]1O`, the minimal inhibitory concentration (MIC) in assay [1] is 25 µg/mL; in assay [2], 100 µg/mL (≈ 84.7 µM); in assay [3], 25 µg/mL; in [4], 100 µg/mL (≈ 84.7 µM); in [5] it was 50 µg/mL; in assay [6], above 100 µg/mL. Also, the minimal inhibitory concentration (MIC) in assay [7] came to 12.5 µg/mL; in [8] it was 100 µg/mL (≈ 84.7 µM); in assay [9] it was 100 µg/mL (≈ 84.7 µM); in assay [10], 25 µg/mL.
